Laboratory results published in article PMC8795149, “Characterization of a novel non-steroidal glucocorticoid receptor agonist optimized for topical treatment” (Scientific Reports, 2022).

How the values were obtained:
Format in all cases: cell-based
GILZ mRNA = test: Human skin explant, GILZ gene expression; conditions: human skin explants, topical, 24 h; for GILZ Relative ED50: weighted geometric mean ± SD
Procedure: (§1) NativeSkin models (NS002) were purchased from Genoskin, France. Human skin samples from abdominal reduction surgery were obtained by Genoskin from donors upon written informed consent. Full ethical approval for the study protocol was obtained from the French ethical research committee (Comité de Protection des Personnes), and authorization was given by the French Ministry of Research. The study was conducted according to the Declaration of Helsinki. 8 mm punch biopsies were excised and embedded in a fibrin-based matrix in transwells and a silicone ring was firmly attached to the surface covering the outer edge of the skin biopsy to prevent lateral diffusion of topically applied formulations. Skin models were cultured in a defined hydrocortisone- and serum-free medium provided by Genoskin.
(§2) LEO 134310 and reference glucocorticoids were dissolved in propylene carbonate and tested at 4 concentrations in five- or tenfold titrations. Compounds were applied in duplicates or triplicates on the skin surface (0.5 cm^2) in a volume of 2 µL and incubated for 24 h. Vehicle and untreated samples were included for basal level of expression.
(§3) RNA was extracted and qPCR was performed using TaqMan gene expression assays (FKBP5-Hs01561006_m1, TSC22D3 (GILZ)-Hs00608272_m1, TXNIP-Hs01006900_g1, ACTB-Hs99999903_m1, PPIA-Hs99999904_m1, GAPDH-Hs99999905_m1). Gene expression of FKBP5,TSC22D3 (GILZ), and TXNIP was normalized to the geometric mean of the reference genes ACTB, PPIA and GAPDH.
(§4) Doses were expressed as compound (API) concentrations (µg/mL) in the applied formulations. Relative upregulation of FKBP5 was estimated as − fold to vehicle treated control. Effective doses (Emax and ED50) were determined from a sigmoid Emax model in Phoenix64 version 8.0, Pharsight, Certara. Mean values and standard deviation of Emax and ED50 were calculated by weighing individual experiments based on the intra- and inter-experiment variability.

[1] = system: LPS-induced TNF-alpha release in PBMCs; test: TNF-alpha inhibition assay, human PBMCs; conditions: for EC50: geometric mean; for Potency compared to LEO 134310, TNF-alpha release: human PBMC assay
Procedure: PMBCs were isolated from human buffy coats or animal whole blood (EDTA-treated). Buffy coats from anonymized healthy adult blood donors were obtained from the Blood Bank of the National University Hospital Copenhagen in accordance with national legislation. Whole blood from mice (obtained from Charles River) was sampled at the animal facility at LEO Pharma and whole blood from pigs was sourced from ScanTox. Test compounds and PBMCs were incubated with 1 µg/ml LPS (Sigma) overnight at 37 °C in HEPES and Glutamax-containing RPMI medium supplemented with either 0.5% human serum albumin (human PBMCs) or 10% fetal bovine serum (mouse and pig PBMCs) and penicillin/streptomycin. TNF-alpha was measured using AlphaLISA (Perkin Elmer).
(§5) IC50 of test compounds was determined by 10-point titrations in duplicates. IC50 values and other parameters were calculated by sigmoidal curve fitting in Assay Explorer.

TXNIP mRNA = test: Human skin explant, TXNIP gene expression; conditions: human skin explants, topical, 24 h; for TXNIP Relative ED50: weighted geometric mean ± SD
Procedure: as §1, §2, §3, §4

GR [2] = molecular target: T1, GR (Homo sapiens, UniProt P04150); test: Transrepression assay, PMA-induced MMP1 promoter luciferase in HeLa cells; set-up: endogenous in cells; host or cells: HeLa (ATCC) stably expressing MMP1- or MMTV-promoter luciferase; conditions: for EC50: 18 h, geometric mean
T1 sequence (P04150 1-777): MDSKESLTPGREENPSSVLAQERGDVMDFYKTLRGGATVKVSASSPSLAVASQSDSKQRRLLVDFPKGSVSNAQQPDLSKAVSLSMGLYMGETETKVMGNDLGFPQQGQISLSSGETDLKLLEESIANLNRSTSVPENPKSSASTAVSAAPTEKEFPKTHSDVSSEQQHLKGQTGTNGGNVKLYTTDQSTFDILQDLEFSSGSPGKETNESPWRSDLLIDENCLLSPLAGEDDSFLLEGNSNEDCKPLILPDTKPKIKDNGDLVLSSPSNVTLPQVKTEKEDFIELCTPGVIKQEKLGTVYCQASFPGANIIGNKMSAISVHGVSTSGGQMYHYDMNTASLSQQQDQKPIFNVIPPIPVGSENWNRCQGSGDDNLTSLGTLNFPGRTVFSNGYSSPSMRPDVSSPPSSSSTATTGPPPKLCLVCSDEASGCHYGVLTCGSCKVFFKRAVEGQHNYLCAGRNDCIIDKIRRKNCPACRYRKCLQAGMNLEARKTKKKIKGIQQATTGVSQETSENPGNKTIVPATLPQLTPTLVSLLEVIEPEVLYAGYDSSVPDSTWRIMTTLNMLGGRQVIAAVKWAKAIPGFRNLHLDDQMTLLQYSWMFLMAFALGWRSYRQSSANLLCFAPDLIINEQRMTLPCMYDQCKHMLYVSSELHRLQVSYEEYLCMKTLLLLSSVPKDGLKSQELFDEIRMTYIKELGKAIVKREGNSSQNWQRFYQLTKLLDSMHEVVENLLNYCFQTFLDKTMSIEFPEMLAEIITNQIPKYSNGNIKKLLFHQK
Procedure: Assays were adopted from a method reported by Schäcke et al.[39] and HeLa cells were obtained from the American Type Culture Collection (ATCC). Transrepression assay: A HeLa cell line stably expressing luciferase under the control of the human Matrix Metallopeptidase 1 (MMP1) promoter was generated. Upon binding to the GR, […], preventing it from binding the MMP1 promoter, resulting in inhibition of luciferase transcription and activity. Briefly, cells were incubated in culture medium containing charcoal-filtered fetal bovine serum with 5 nM PMA (phorbol 12-myristate 13-acetate) for 18 h with or without test compounds. Then, luciferase activity was detected luminometrically after addition of specific substrate to the cells.
as §5

GR [3] = molecular target: T1, GR; test: Reversal of GR agonist-mediated suppression of cytokine release from LPS-stimulated PBMC by RU486; set-up: endogenous in cells; conditions: 100 nM agonist
Procedure: PMBCs were isolated from human buffy coats obtained in accordance with national legislation and following in-house protocol at Charles River Laboratories (Leiden, Netherlands). Test compounds and PBMCs were incubated with 10 ng/ml LPS (Sigma) overnight at 37°C in HEPES and Glutamax-containing RPMI medium supplemented with 0.5% human serum albumin (human PBMCs) and penicillin/streptomycin. TNF-alpha, IL-1-beta, and IL-6 were measured by MSD multiplex assay (Meso Scale Discovery).Compound concentration in dermis (Figure S4)

Compound | GILZ Emax (GILZ mRNA) | GILZ Relative ED50 (GILZ mRNA) | Emax ([1]; PBMC, Human PBMCs) | EC50 ([1]; PBMC, Human PBMCs) | Potency compared to LEO 134310, TNF-alpha release [1] | TXNIP Emax (TXNIP mRNA) | TXNIP Relative ED50 (TXNIP mRNA) | Emax (GR [2]) | EC50 (GR [2]) | Reversal by GR antagonist RU486 of inhibition of LPS-induced cytokine release (GR [3]) | Inhibition of LPS-induced TNF-alpha release Emax ([1]; Human PBMCs) | EC50 ([1]; Human PBMCs) | Transrepression Emax (GR [2])
CCCCC(=O)O[C@]1(C(=O)CO)[C@@H](C)C[C@H]2[C@@H]3CCC4=CC(=O)C=C[C@]4(C)[C@@]3(F)[C@@H](O)C[C@@]21C [BMV, Betamethasone Valerate] | 6.1 ± 3.7 fold to control | 5.1 ± 27 µg/mL | 79% | 3.2 nM | equipotent | 17 ± 17 fold to control | 52 ± 15 µg/mL | 78% | 0.57 nM | could be reversed in a concentration-dependent manner |  |  | 
CCC(=O)O[C@]1(C(=O)CCl)[C@@H](C)C[C@H]2[C@@H]3CCC4=CC(=O)C=C[C@]4(C)[C@@]3(F)[C@@H](O)C[C@@]21C [CP, Clobetasol Propionate] | 7.7 ± 2.5^NS fold to control | 1.1 ± 0.25^NS µg/mL | 79% | 0.52 nM | fourfold more potent | 19 ± 8.5^NS fold to control | 1.3 ± 0.33 µg/mL | 90% | 0.064 nM | could be reversed in a concentration-dependent manner |  |  | 
C[C@H](NC(=O)[C@H]1CCCO1)[C@H](Oc1ccc(C(=O)O[C@H]2CCCN(C(=O)[C@H]3COC(=O)C3)C2)cc1)c1ccc(C2CC2)cc1 [LEO 134310] | 6.7 ± 2.7^NS fold to control | 270 ± 110 µg/mL |  |  |  | 19 ± 7.3^NS fold to control | 110 ± 300^NS µg/mL |  | 1.2 nM | could be reversed in a concentration-dependent manner | 77% | 2.3 nM | 100%
